Measurements from PMC2394487, “Improved radiotracing of oxytocin receptor-expressing tumours using the new [^111In]-DOTA-Lys^8-deamino-vasotocin analogue” (British Journal of Cancer, 2003).
“Also recorded” adds a separate entry of the source. Positions of bridges follow the written chain, without caps; N, C: chain ends. Non-standard residues stand in square brackets, D forms with d. Residues, ends and D or L forms follow the SMILES beside them. *: point of attachment. DOTA = O=C(O)CN1CCN(CC(=O)O)CCN(CC(=O)*)CCN(CC(=O)O)CC1; Mpa = O=C(O)CCS

Key:
[1] = target: T1, human OTR (Homo sapiens, UniProt P30559); assay: Heterologous competition binding, [3H]-OT displacement, membranes of transfected COS7 cells; details: for Ki: displacement of [3H]-OT, mean±s.e. of three experiments
T1 construct: expressed in transfected cells; host or cells: COS7 (monkey kidney), transient electroporation
T1 sequence (P30559 1-389): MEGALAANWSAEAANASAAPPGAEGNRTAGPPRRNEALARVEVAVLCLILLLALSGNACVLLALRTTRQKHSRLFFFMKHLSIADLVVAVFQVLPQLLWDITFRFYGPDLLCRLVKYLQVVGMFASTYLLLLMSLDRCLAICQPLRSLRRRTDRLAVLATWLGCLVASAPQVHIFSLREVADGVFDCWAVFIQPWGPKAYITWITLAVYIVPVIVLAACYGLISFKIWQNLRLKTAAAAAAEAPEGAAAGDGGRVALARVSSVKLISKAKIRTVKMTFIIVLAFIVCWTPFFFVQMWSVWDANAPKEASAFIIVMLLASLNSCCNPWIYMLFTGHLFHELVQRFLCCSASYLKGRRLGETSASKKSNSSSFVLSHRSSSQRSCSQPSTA
Procedure: (§1) To determine the LVT, dLVT and DOTA-dLVT affinity constants in comparison with OT, heterologous competition experiments were performed on membranes prepared from monkey kidney COS7 cells transiently transfected by means of electroporation with human OTR, V1a, V2 and V1b cDNAs as previously described ([Chini et al, 1995a]). Briefly, the transfected cells were homogenised with a Dounce glass apparatus, washed twice, and resuspended in binding buffer (50 mM Tris HCl, 5 mM MgCl, pH 7.4). Between 5 and 10 μg of membrane proteins were incubated with a fixed concentration of [^3H]OT (1–2 nM) for 30 min at 30°C in the presence of increasing concentrations of unlabelled peptides. Nonspecific binding was determined in the presence of 1 μM OT. Bound and free radioactivity were separated by filtration over Whatman GF/C filters presoaked in 10 mg ml^−1 BSA. The binding isotherms were analysed using GraphPad Prism.
LVT, dLVT and DOTA-dLVT affinities for the human OTR were determined by means of heterologous competition experiments on membranes prepared from transiently transfected COS7 cells using [^3H]-OT as radioligand.
Figure 3 Binding of LVT-derived peptides to human OT/AVP receptor subtypes. (A) Comparison of OT and DOTA-dLVT affinity for the human OTR. […] [^3H]-OT was used at a concentration of 1–2 nM, and nonspecific binding was determined in the presence of […] OT. Data are expressed as the percentage of bound [^3H]-OT in the absence of cold competitor. […] The affinity of [^111In]-DOTA-dLVT for the human OTR was measured by incubating increasing amounts of labelled peptide to membrane preparations of COS7 cells transiently transfected with the wild-type OTR. […] The membrane preparations of OTR-expressing cells were incubated in the presence of a constant amount of ^3[H]OT (1–2 nM), and nonspecific binding was determined in the presence of 100 μM OT. The membrane preparations of cells expressing V1a, V1b and V2 receptors were incubated in the presence of a constant amount of ^3[H]AVP (2–4 nM), and nonspecific binding was determined in the presence of 100 μM AVP. […]

[2] = target: T2, human V1a receptor (Homo sapiens, UniProt P37288); assay: Competition binding, [3H]-AVP displacement, membranes of transfected COS7 cells; details: for Ki: displacement of [3H]-AVP, mean±s.e. of three experiments
T2 construct: expressed in transfected cells; host or cells: COS7 (monkey kidney), transient electroporation
Procedure: as §1
(§2) Figure 3 Binding of LVT-derived peptides to human OT/AVP receptor subtypes. (A) Comparison of OT and DOTA-dLVT affinity for the human OTR. Competition experiments were performed using membrane preparations of COS7 cells transiently transfected with the wild-type OTR. [^3H]-OT was used at a concentration of 1–2 nM, and nonspecific binding was determined in the presence of […] OT. Data are expressed as the percentage of bound [^3H]-OT in the absence of cold competitor. The curves are representative of three independent assays performed in triplicate. (B) [^111In]-DOTA-dLVT saturation binding assay. The affinity of [^111In]-DOTA-dLVT for the human OTR was measured by incubating increasing amounts of labelled peptide to membrane preparations of COS7 cells transiently transfected with the wild-type OTR. The curve is representative of two independent assays performed in triplicate. (C) Receptor selectivity profile of DOTA-dLVT. Competition experiments were performed using membrane preparations of COS7 cells transiently transfected with the wild-type human OTR, and V1a, V1b and V2 receptors. The membrane preparations of OTR-expressing cells were incubated in the presence of a constant amount of ^3[H]OT (1–2 nM), and nonspecific binding was determined in the presence of 100 μM OT. The membrane preparations of cells expressing V1a, V1b and V2 receptors were incubated in the presence of a constant amount of ^3[H]AVP (2–4 nM), and nonspecific binding was determined in the presence of 100 μM AVP. The data are expressed as percentages of bound [^3H]-ligand in the absence of cold competitor. Each curve is the mean of triplicate determinations of a single representative experiment.

[3] = target: T3, human V1b receptor (Homo sapiens, UniProt P47901); assay: as above; details: for Ki: displacement of [3H]-AVP, mean±s.e. of three experiments
T3 construct: expressed in transfected cells; host or cells: COS7 (monkey kidney), transient electroporation
T3 sequence (P47901 1-424): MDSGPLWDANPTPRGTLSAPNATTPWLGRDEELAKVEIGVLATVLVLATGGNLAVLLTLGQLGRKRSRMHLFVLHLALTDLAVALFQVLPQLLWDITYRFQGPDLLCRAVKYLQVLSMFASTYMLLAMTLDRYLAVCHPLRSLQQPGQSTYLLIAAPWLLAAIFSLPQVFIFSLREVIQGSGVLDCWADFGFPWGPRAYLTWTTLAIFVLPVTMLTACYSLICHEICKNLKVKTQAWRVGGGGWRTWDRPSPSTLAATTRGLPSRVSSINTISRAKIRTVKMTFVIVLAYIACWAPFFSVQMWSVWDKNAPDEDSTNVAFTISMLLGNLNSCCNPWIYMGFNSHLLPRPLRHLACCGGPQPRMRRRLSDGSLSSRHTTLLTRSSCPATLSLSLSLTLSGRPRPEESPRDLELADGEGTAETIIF
Procedure: as §1, §2

[4] = target: T4, human V2 receptor (Homo sapiens, UniProt P30518); assay: as above; details: for Ki: displacement of [3H]-AVP, mean±s.e. of three experiments
T4 construct: expressed in transfected cells; host or cells: COS7 (monkey kidney), transient electroporation
Procedure: as §1, §2

[5] = target: T5, human OTR fused to EGFP (Homo sapiens, UniProt P30559); assay: Peptide-induced receptor internalisation, confocal microscopy, HEK293 cells; assay type: cell-based; details: peptide 10^−6 M; for receptor internalisation (result in words): up to 60 min
T5 construct: expressed in transfected cells; host or cells: HEK293, stably transfected
T5 sequence (P30559 1-389): T1 sequence (P30559 1-389)
Procedure: HEK293 cells stably transfected with the human OTR fused to EGFP were grown in six-well dishes, washed twice in serum-free medium, and left to equilibrate for 30 min at 37°C. Peptides were then added at a final concentration of 10^−6 M. At fixed time intervals (5, 15, 30 and 60 min), the cells were washed twice with 10 mM sodium phosphate buffer, pH 7.4, containing 150 mM NaCl (LS buffer), fixed for 20 min at room temperature with 4% (w v^−1) paraformaldehyde, and mounted on glass slides with 90% (v v^−1) glycerol in PBS. The slides were observed under an MRC1024 BioRad confocal microscope.
To assess whether LVT, dLVT and DOTA-dLVT behave like OT to induce receptor internalisation, we applied them to HEK293 cells stably expressing a human OTR C-terminally tagged with the green fluorescent protein EGFP ([Guzzi et al, 2002]; [Rimoldi et al, 2003]).
Figure 4 Laser-scanning confocal microscopy analysis of peptide-induced receptor internalisation. Receptor internalisation was investigated in HEK293 cells stably transfected with the human OTR bearing the EGFP fused at its C-terminus. The cells were grown on coverslips and incubated in serum-free medium for 30 min (Bas), after which the peptides were added at a final concentration of 10^−6 M and the coverslips were fixed at 1, 5, 15, 30 and 60 min.

[6] = system: OTR-positive cells (MCF7, TS/A, MOG-U-V-W); assay: Displacement of [111In]-DOTA-dLVT binding from intact tumour cells by cold peptides; assay type: cell-based; details: 5 min preincubation with 100 μM and 1 mM nonradioactive peptide
Procedure: Binding specificity was determined by evaluating radioactive displacement. Briefly, the cell suspension was incubated for 5 min in the presence of LVT, dLVT or OT 100 μM and 1 mM, or in the presence of unrelated peptides (somatostatin 100 nM and 1 μM, and hexarelin 1 μM) followed by 20 min of incubation with 1 μM [^111In]-DOTA-dLVT. The cells were then centrifuged and washed twice as described above. The activity of the two different agonists and the unrelated peptides in competing with the radioligand was evaluated by measuring cell-bound radioactivity. All of the experiments were performed in triplicate. The statistical analysis was carried out using ANOVA, with a significance cutoff point of 0.05.

T2 sequence (P37288 whole entry): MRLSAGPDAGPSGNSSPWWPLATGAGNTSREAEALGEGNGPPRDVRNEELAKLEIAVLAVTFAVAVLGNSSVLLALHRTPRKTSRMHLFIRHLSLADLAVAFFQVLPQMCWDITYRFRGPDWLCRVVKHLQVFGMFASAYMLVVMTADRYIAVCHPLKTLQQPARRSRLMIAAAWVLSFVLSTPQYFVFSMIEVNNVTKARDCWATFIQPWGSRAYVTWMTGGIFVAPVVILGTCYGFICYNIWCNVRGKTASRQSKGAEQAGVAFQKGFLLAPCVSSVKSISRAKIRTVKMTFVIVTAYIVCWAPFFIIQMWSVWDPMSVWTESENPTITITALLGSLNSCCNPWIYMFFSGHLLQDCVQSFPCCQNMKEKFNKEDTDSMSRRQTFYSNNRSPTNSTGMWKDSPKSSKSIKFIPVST
T4 sequence (P30518 whole entry): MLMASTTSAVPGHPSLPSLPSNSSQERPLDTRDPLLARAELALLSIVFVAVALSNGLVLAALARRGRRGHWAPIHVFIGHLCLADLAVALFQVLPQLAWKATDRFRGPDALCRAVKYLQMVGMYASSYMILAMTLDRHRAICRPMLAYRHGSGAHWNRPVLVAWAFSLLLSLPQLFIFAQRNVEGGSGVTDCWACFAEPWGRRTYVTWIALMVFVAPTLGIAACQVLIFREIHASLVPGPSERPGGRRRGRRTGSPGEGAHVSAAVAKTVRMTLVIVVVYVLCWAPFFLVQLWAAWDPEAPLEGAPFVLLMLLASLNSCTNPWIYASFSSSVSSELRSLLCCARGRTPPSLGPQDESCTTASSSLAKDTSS

| Compound | enhancement of affinity for the hOTR by addition of DOTA group at position 8 of dLVT ([1]; compared to dLVT (to both OT and dLVT)) | Ki [1] [nM] | lower affinity at V1a receptor relative to human OTR [2] [fold] | Ki [2] [nM] | lower affinity at V1b receptor relative to human OTR [3] [fold] | Ki [3] [nM] | decrease in binding affinity at V2 receptor relative to human OTR [4] [fold] | Ki [4] [nM] | time after application at which punctate fluorescence (endocytotic vesicles) is seen [5] [min] | receptor internalisation (result in words) [5] | concentrations at which V2 receptor binds the peptide ([4]; in words) | specific [111In]-DOTA-dLVT binding displaced [6] |
| --- | --- | --- | --- | --- | --- | --- | --- | --- | --- | --- | --- | --- |
| CC[C@H](C)[C@@H]1NC(=O)[C@H](Cc2ccc(O)cc2)NC(=O)CCSSC[C@@H](C(=O)N2CCC[C@H]2C(=O)N[C@@H](CCCCNC(=O)CN2CCN(CC(=O)O)CCN(CC(=O)O)CCN(CC(=O)O)CC2)C(=O)NCC(N)=O)NC(=O)[C@H](CC(N)=O)NC(=O)[C@H](CCC(N)=O)NC1=O [DOTA-dLVT] ([Mpa]YIQNCPK(DOTA)G-NH2; disulfide 1-6) | 2–3 fold | 1.21 ± 0.199 | ≥ 300 | 370 ± 58 | ≥ 300 | 640 ± 177 | ≥ 300 | 3560 ± 280 | 5 | capable of inducing a persistent internalisation; also recorded: rapid and persistent receptor internalisation |  |  |
| CC[C@H](C)[C@@H]1NC(=O)[C@H](Cc2ccc(O)cc2)NC(=O)[C@@H](N)CSSC[C@@H](C(=O)N2CCC[C@H]2C(=O)N[C@@H](CCCCN)C(=O)NCC(N)=O)NC(=O)[C@H](CC(N)=O)NC(=O)[C@H](CCC(N)=O)NC1=O [LVT, [Lys8]-vasotocin, reference compound] (HELM PEPTIDE1{C.Y.I.Q.N.C.P.K.G.[am]}$PEPTIDE1,PEPTIDE1,1:R3-6:R3$$$V2.0; C-terminus assumed; bridges inferred) |  |  | 10 |  | 10 |  |  |  | 5 | rapid and persistent receptor internalisation | only at micromolar concentrations | more than 92% |
| CC[C@H](C)[C@@H]1NC(=O)[C@H](Cc2ccc(O)cc2)NC(=O)CCSSC[C@@H](C(=O)N2CCC[C@H]2C(=O)N[C@@H](CCCCN)C(=O)NCC(N)=O)NC(=O)[C@H](CC(N)=O)NC(=O)[C@H](CCC(N)=O)NC1=O [dLVT, reference compound] (HELM PEPTIDE1{[O=C(CCS[*:3])[*:2]].Y.I.Q.N.C.P.K.G.[am]}$PEPTIDE1,PEPTIDE1,1:R3-6:R3$$$V2.0) |  | 3.88 ± 0.585 |  | 35.5 ± 6.2 |  | 71.7 ± 2 |  | 3740 ± 400 |  |  |  |  |
| oxytocin [OT] |  |  |  |  |  |  |  |  |  |  |  | more than 92% |
